Assay results as given in ChEMBL document CHEMBL1177848, “Synthesis of novel 6,6a,7,8-tetrahydro-5H-naphtho[1,2-e]pyrimido[4,5-b][1,4]diazepines under microwave irradiation as potential anti-tumor agents” (2010).
Active and inactive are the calls of the source. The calls are words filed in the database; no cut-off is given here.

Legend:
[1] = tested on: A498; experiment: Growth inhibition of human A498 cells after 48 hrs by sulforhodamine B assay; type: functional; settings: A498, 48 h
[2] = tested on: KM12; experiment: Growth inhibition of human KM12 cells at 1 uM after 48 hrs by sulforhodamine B assay; type: functional, cell-based
[3] = tested on: U-251; experiment: Growth inhibition of human U251 cells at 1 uM after 48 hrs by sulforhodamine B assay; type: functional, cell-based
[4] = tested on: Malme-3M; experiment: Growth inhibition of human MALME-3M cells after 48 hrs by sulforhodamine B assay; type: functional
[5] = tested on: COLO 205; experiment: Growth inhibition of human COLO205 cells after 48 hrs by sulforhodamine B assay; type: functional; settings: COLO 205, 48 h
[6] = tested on: Malme-3M; experiment: Growth inhibition of human MALME-3M cells at 1 uM after 48 hrs by sulforhodamine B assay; type: functional, cell-based
[7] = tested on: T47D; experiment: Growth inhibition of human T47D cells after 48 hrs by sulforhodamine B assay; type: functional
[8] = tested on: SK-MEL-28; experiment: Growth inhibition of human SK-MEL-28 cells at 1 uM after 48 hrs by sulforhodamine B assay; type: functional, cell-based
[9] = tested on: OVCAR-8; experiment: Growth inhibition of human OVCAR8 cells at 1 uM after 48 hrs by sulforhodamine B assay; type: functional, cell-based
[10] = tested on: A549; experiment: Growth inhibition of human A549 cells at 1 uM after 48 hrs by sulforhodamine B assay; type: functional, cell-based
[11] = tested on: IGROV-1; experiment: Growth inhibition of human IGROV1 cells after 48 hrs by sulforhodamine B assay; type: functional; settings: IGROV-1, 48 h
[12] = tested on: HCT-116; experiment: Growth inhibition of human HCT116 cells at 1 uM after 48 hrs by sulforhodamine B assay; type: functional, cell-based
[13] = tested on: OVCAR-3; experiment: Growth inhibition of human OVCAR-3 cells at 1 uM after 48 hrs by sulforhodamine B assay; type: functional, cell-based
[14] = tested on: RXF 393; experiment: Growth inhibition of human RXF393 cells at 1 uM after 48 hrs by sulforhodamine B assay; type: functional, cell-based
[15] = tested on: MDA-MB-231; experiment: Growth inhibition of human MDA-MB-231 cells after 48 hrs by sulforhodamine B assay; type: functional; settings: MDA-MB-231, 48 h
[16] = tested on: BT-549; experiment: Growth inhibition of human BT549 cells after 48 hrs by sulforhodamine B assay; type: functional; settings: BT-549, 48 h
[17] = tested on: SK-MEL-2; experiment: Growth inhibition of human SK-MEL-2 cells at 1 uM after 48 hrs by sulforhodamine B assay; type: functional, cell-based
[18] = tested on: SF-295; experiment: Growth inhibition of human SF295 cells at 1 uM after 48 hrs by sulforhodamine B assay; type: functional, cell-based
[19] = tested on: HL-60; experiment: Growth inhibition of human HL-60(TB) cells at 1 uM after 48 hrs by sulforhodamine B assay; type: functional, cell-based
[20] = tested on: HOP-92; experiment: Growth inhibition of human HOP92 cells at 1 uM after 48 hrs by sulforhodamine B assay; type: functional, cell-based
[21] = tested on: NCI-H23; experiment: Growth inhibition of human NCI-H23 cells after 48 hrs by sulforhodamine B assay; type: functional; settings: NCI-H23, 48 h
[22] = tested on: SF-539; experiment: Growth inhibition of human SF539 cells at 1 uM after 48 hrs by sulforhodamine B assay; type: functional, cell-based
[23] = tested on: SK-MEL-5; experiment: Growth inhibition of human SK-MEL-5 cells at 1 uM after 48 hrs by sulforhodamine B assay; type: functional, cell-based
[24] = tested on: SR; experiment: Growth inhibition of human SR cells after 48 hrs by sulforhodamine B assay; type: functional
[25] = tested on: HCT-15; experiment: Growth inhibition of human HCT15 cells at 1 uM after 48 hrs by sulforhodamine B assay; type: functional, cell-based
[26] = tested on: UO-31; experiment: Growth inhibition of human UO31 cells after 48 hrs by sulforhodamine B assay; type: functional; settings: UO-31, 48 h
[27] = tested on: SF530; experiment: Growth inhibition of human SF530 cells at 1 uM after 48 hrs by sulforhodamine B assay; type: functional, cell-based
[28] = tested on: RPMI-8226; experiment: Growth inhibition of human RPMI8226 cells at 1 uM after 48 hrs by sulforhodamine B assay; type: functional, cell-based
[29] = tested on: NCI-H460; experiment: Growth inhibition of human NCI-H460 cells after 48 hrs by sulforhodamine B assay; type: functional; settings: NCI-H460, 48 h
[30] = tested on: IGROV-1; experiment: Growth inhibition of human IGROV1 cells at 1 uM after 48 hrs by sulforhodamine B assay; type: functional, cell-based
[31] = tested on: HT-29; experiment: Growth inhibition of human HT-29 cells after 48 hrs by sulforhodamine B assay; type: functional; settings: HT-29, 48 h
[32] = tested on: K562; experiment: Growth inhibition of human K562 cells at 1 uM after 48 hrs by sulforhodamine B assay; type: functional, cell-based
[33] = tested on: SN12C; experiment: Growth inhibition of human SN12C cells at 1 uM after 48 hrs by sulforhodamine B assay; type: functional, cell-based
[34] = tested on: HT-29; experiment: Growth inhibition of human HT-29 cells at 1 uM after 48 hrs by sulforhodamine B assay; type: functional, cell-based
[35] = tested on: LOX IMVI; experiment: Growth inhibition of human LOXIMVI cells at 1 uM after 48 hrs by sulforhodamine B assay; type: functional, cell-based
[36] = tested on: RXF 393; experiment: Growth inhibition of human RXF393 cells after 48 hrs by sulforhodamine B assay; type: functional; settings: RXF 393, 48 h
[37] = tested on: NCI-H322M; experiment: Growth inhibition of human […] cells at 1 uM after 48 hrs by sulforhodamine B assay; type: functional, cell-based
[38] = tested on: OVCAR-4; experiment: Growth inhibition of human OVCAR4 cells at 1 uM after 48 hrs by sulforhodamine B assay; type: functional, cell-based
[39] = tested on: ACHN; experiment: Growth inhibition of human ACHN cells at 1 uM after 48 hrs by sulforhodamine B assay; type: functional, cell-based
[40] = tested on: UO-31; experiment: Growth inhibition of human UO31 cells at 1 uM after 48 hrs by sulforhodamine B assay; type: functional, cell-based
[41] = tested on: UACC-257; experiment: Growth inhibition of human UACC257 cells after 48 hrs by sulforhodamine B assay; type: functional; settings: UACC-257, 48 h
[42] = tested on: NCI-H226; experiment: Growth inhibition of human NCI-H226 cells at 1 uM after 48 hrs by sulforhodamine B assay; type: functional, cell-based
[43] = tested on: MDA-MB-435; experiment: Growth inhibition of human MDA-MB-435 cells at 1 uM after 48 hrs by sulforhodamine B assay; type: functional, cell-based
[44] = tested on: EKVX; experiment: Growth inhibition of human EKVX cells after 48 hrs by sulforhodamine B assay; type: functional
[45] = tested on: MOLT-4; experiment: Growth inhibition of human MOLT4 cells at 1 uM after 48 hrs by sulforhodamine B assay; type: functional, cell-based
[46] = tested on: OVCAR-4; experiment: Growth inhibition of human OVCAR4 cells after 48 hrs by sulforhodamine B assay; type: functional; settings: OVCAR-4, 48 h
[47] = tested on: MCF7; experiment: Growth inhibition of human MCF7 cells after 48 hrs by sulforhodamine B assay; type: functional; settings: MCF7, 48 h
[48] = read-out: LC50 (the source's name)

## Nc1nc(N)c2c(n1)NC(c1ccccc1)C1CCc3ccccc3C1=N2 (centres undefined)
[1]
  GI50: 2.29 µM
  LC50: 30.2 µM
[2]
  growth inhibition (GI): inactive
[3]
  growth inhibition (GI): inactive
[4]
  GI50: 2.13 µM
  LC50: 82.5 µM
[5]
  GI50: 3.07 µM
  LC50 (50% lethal concentration): 38.7 µM
[6]
  growth inhibition (GI): inactive
[7]
  GI50: 4.57 µM
[7]; [48]
  CC50: > 100 µM
[8]
  growth inhibition (GI): inactive
[9]
  growth inhibition (GI): inactive
[10]
  growth inhibition (GI): inactive
[11]
  GI50: 4.45 µM
  LC50 (concentration killing 50% of cells): 62.3 µM
[12]
  growth inhibition (GI): inactive
[13]
  growth inhibition (GI): inactive
[14]
  growth inhibition (GI): inactive
[15]
  GI50: 6.02 µM
[15]; [48]
  CC50: 51.9 µM
[16]
  GI50: 5.42 µM
[16]; [48]
  CC50: 47.9 µM
[17]
  growth inhibition (GI): inactive
[18]
  growth inhibition (GI): inactive
[19]
  growth inhibition (GI): inactive
[20]
  growth inhibition (GI): inactive
[21]
  GI50: 4.56 µM
  LC50: 57.4 µM
[22]
  growth inhibition (GI): inactive
[23]
  growth inhibition (GI): inactive
[24]
  GI50: 4.52 µM
  LC50: > 100 µM
[25]
  growth inhibition (GI): inactive
[26]
  GI50: 2.5 µM
  LC50: 45 µM
[27]
  growth inhibition (GI): inactive
[28]
  growth inhibition (GI): inactive
[29]
  GI50: 3.81 µM
  LC50: 44.2 µM
[30]
  growth inhibition (GI): inactive
[31]
  GI50: 3.66 µM
[31]; [48]
  CC50: 38 µM
[32]
  growth inhibition (GI): inactive
[33]
  growth inhibition (GI): inactive
[34]
  growth inhibition (GI): inactive
[35]
  growth inhibition (GI): inactive
[36]
  GI50: 4.89 µM
  LC50 (50% lethal concentration): 66.7 µM
[37]
  growth inhibition (GI): inactive
[38]
  growth inhibition (GI): inactive
[39]
  growth inhibition (GI): inactive
[40]
  growth inhibition (GI): inactive
[41]
  GI50: 3.72 µM
[41]; [48]
  CC50: 42.6 µM
[42]
  growth inhibition (GI): inactive
[43]
  growth inhibition (GI): inactive
[44]
  GI50: 2.68 µM
  LC50: 78.3 µM
[45]
  growth inhibition (GI): inactive
[46]
  GI50: 3.06 µM
  LC50 (50% lethal concentration): 62.3 µM
[47]
  GI50: 3.25 µM
  LC50: 46.7 µM
